Assay results reported in patent US9227971B2, “Pyrazolo[1,5-a]pyrimidine compounds as mTOR inhibitors” (Merck Sharp & Dohme Corp., priority 2010, dated 2016).
Where two headings read alike, the source gives them in different places.

Tests used:
[1] = tested on: phosphorylated 4E-BP1 Thr37/46 (p4E-BP1 Thr37/46), mTORC1 activity, PC3 cells; assay: mTOR target engagement assay, immunofluorescent cell-based, p4E-BP1 Thr37/46 readout (mTORC1 activity); conditions: read-out: p4E-BP1 Thr37/46 IC50
Summary of the method: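 Read-out is fluorescence intensity of immunostained p4E-BP1 Thr37/46 in fixed PC3 cells, fitted to a logistic curve for IC50 with DMSO-only wells as top. Cells had been exposed to serial compound dilutions for ninety minutes at 37° C in 5% FBS medium with 0.25% DMSO.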

[2] = tested on: phosphorylated AKT Ser473 (pAKT S473), mTORC2 activity, PC3 cells; assay: mTOR target engagement assay, immunofluorescent cell-based, pAKT S473 readout (mTORC2 activity)
Summary of the method: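 After blocking, cells were stained overnight at 4 °C with anti-pAKT S473 antibody, then a fluorescent secondary; inhibition was read as reduced fluorescence intensity.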

[3] = Homo sapiens, PC-3, Table 7-8, PC3 cells
[4] = Homo sapiens, PC-3, Table 3-1, PC3 cells
[5] = Homo sapiens, PC-3, PC3 cells, compound treatment ninety minutes at 37° C.
[6] = Homo sapiens, PC-3, Table 7-9 (no column head printed; column order as in the neighbouring tables), PC3 cells

Nc1c(Br)c([C@@H]2C[C@H]3CC[C@@H](C2)N3C(=O)c2nnc[nH]2)nc2c(-c3ccc(C4(O)CCC4)nc3)cnn12 [Compound 7.42, ((1R,3s,5S)-3-(7-amino-6-bromo-3-(6-(1-hydroxycyclobutyl)pyridin-3-yl)pyrazolo[1,5-a]pyrimidin-5-yl)-8-azabicyclo[3.2.1]octan-8-yl)(4H-1,2,4-triazol-3-yl)methanone]
IC50 [1, 3]: 100 to 1000 nM | IC50 [2, 3]: 1000 to 10000 nM

CS(=O)(=O)c1c([C@@H]2C[C@H]3CC[C@@H](C2)N3C(=O)c2nnc[nH]2)nc2c(-c3ccc(-c4ccccc4F)nc3)cnn2c1N [Compound 3.104, ((1R,3s,5S)-3-(7-amino-3-(6-(2-fluorophenyl)pyridin-3-yl)-6-(methylsulfonyl)pyrazolo[1,5-a]pyrimidin-5-yl)-8-azabicyclo[3.2.1]octan-8-yl)(4H-1,2,4-triazol-3-yl)methanone]
IC50 [1, 4]: 1 to 100 nM | IC50 [2, 4]: 1 to 100 nM

Nc1c(CO)c([C@@H]2C[C@H]3CC[C@@H](C2)N3C(=O)c2nnc[nH]2)nc2c(-c3ccc(-c4ccccc4)nc3)cnn12 [Compound 5.7, ((1R,3s,5S)-3-(7-amino-6-(hydroxymethyl)-3-(6-phenylpyridin-3-yl)pyrazolo[1,5-a]pyrimidin-5-yl)-8-azabicyclo[3.2.1]octan-8-yl)(4H-1,2,4-triazol-3-yl)methanone]
IC50 [1, 5]: 1 to 100 nM | IC50 [2, 5]: 1 to 100 nM

CC(=O)c1c([C@@H]2C[C@H]3CC[C@@H](C2)N3C(=O)CO)nc2c(-c3ccc(C(N)(C(F)(F)F)C(F)(F)F)nc3)cnn2c1N [Compound 7.81, 1-((1R,3s,5S)-3-(6-acetyl-7-amino-3-(6-(2-amino-1,1,1,3,3,3-hexafluoropropan-2-yl)pyridin-3-yl)pyrazolo[1,5-a]pyrimidin-5-yl)-8-azabicyclo[3.2.1]octan-8-yl)-2-hydroxyethanone]
IC50 ([1]; Homo sapiens, PC-3, PC3 cells): 1000 to 10000 nM | IC50 ([2]; Homo sapiens, PC-3, PC3 cells): > 10000 nM

CCS(=O)(=O)c1c([C@@H]2C[C@H]3CC[C@@H](C2)N3C(=O)c2nnc[nH]2)nc2c(-c3ccc(-c4ccccc4)nc3)cnn2c1N [Compound 3.161, ((1R,3s,5S)-3-(7-amino-6-(ethylsulfonyl)-3-(6-phenylpyridin-3-yl)pyrazolo[1,5-a]pyrimidin-5-yl)-8-azabicyclo[3.2.1]octan-8-yl)(4H-1,2,4-triazol-3-yl)methanone]
IC50 [1, 4]: 1 to 100 nM | IC50 [2, 4]: 1 to 100 nM

Nc1c(C2(O)CC2)c([C@@H]2C[C@H]3CC[C@@H](C2)N3C(=O)c2nc[nH]n2)nc2c(-c3ccc(-c4ccccc4)nc3)cnn12 [Compound 8.39]
IC50 ([1]; Homo sapiens, PC-3, PC3 cells): 1000 to 10000 nM | IC50 ([2]; Homo sapiens, PC-3, PC3 cells): 1000 to 10000 nM

Nc1c(C2CC2)c(C2CC3CCC(C2)N3C(=O)c2nnc(N3CCNCC3)[nH]2)nc2c(-c3ccc(-c4ccccc4)nc3)cnn12 [Compound 8.98, ((1R,3s,5S)-3-(7-amino-6-cyclopropyl-3-(6-phenylpyridin-3-yl)pyrazolo[1,5-a]pyrimidin-5-yl)-8-azabicyclo[3.2.1]octan-8-yl)(5-(piperazin-1-yl)-4H-1,2,4-triazol-3-yl)methanone]
IC50 ([1]; Homo sapiens, PC-3, PC3 cells): 1000 to 10000 nM | IC50 ([2]; Homo sapiens, PC-3, PC3 cells): 1000 to 10000 nM

Cn1ccc(-c2ccc(-c3cnn4c(N)c(S(C)(=O)=O)c([C@@H]5C[C@H]6CC[C@@H](C5)N6C(=O)c5nnc[nH]5)nc34)c[n+]2[O-])n1 [Compound 3.41, 5-(5-((1R,3s,5S)-8-(4H-1,2,4-triazole-3-carbonyl)-8-azabicyclo[3.2.1]octan-3-yl)-7-amino-6-(methylsulfonyl)pyrazolo[1,5-a]pyrimidin-3-yl)-2-(1-methyl-1H-pyrazol-3-yl)pyridine 1-oxide]
IC50 [1, 4]: 100 to 1000 nM | IC50 [2, 4]: 1 to 100 nM

CC(=O)c1c([C@@H]2C[C@H]3CC[C@@H](C2)N3C(=O)N2CCOCC2)nc2c(-c3ccc(-c4ccccc4)nc3)cnn2c1N [Compound 1.1.122, 1-(7-amino-5-((1R,3s,5S)-8-(morpholine-4-carbonyl)-8-azabicyclo[3.2.1]octan-3-yl)-3-(6-phenylpyridin-3-yl)pyrazolo[1,5-a]pyrimidin-6-yl)ethanone]
IC50 [1, 5]: 1000 to 10000 nM | IC50 [2, 5]: 1000 to 10000 nM

Nc1c(C2CC2)c([C@@H]2C[C@H]3CC[C@@H](C2)N3C(=O)c2nnc[nH]2)nc2c(-c3ccc(-c4cccc(F)c4)nc3)cnn12 [Compound 4.21, ((1R,3s,5S)-3-(7-amino-6-cyclopropyl-3-(6-(3-fluorophenyl)pyridin-3-yl)pyrazolo[1,5-a]pyrimidin-5-yl)-8-azabicyclo[3.2.1]octan-8-yl)(4H-1,2,4-triazol-3-yl)methanone]
IC50 [1, 5]: 1 to 100 nM | IC50 [2, 5]: 1 to 100 nM

Cn1cc2cc(-c3ccc(-c4cnn5c(N)c(S(C)(=O)=O)c([C@@H]6C[C@H]7CC[C@@H](C6)N7C(=O)c6nnc[nH]6)nc45)cn3)ccc2n1 [Compound 3.57, ((1R,3s,5S)-3-(7-amino-3-(6-(2-methyl-2H-indazol-5-yl)pyridin-3-yl)-6-(methylsulfonyl)pyrazolo[1,5-a]pyrimidin-5-yl)-8-azabicyclo[3.2.1]octan-8-yl)(4H-1,2,4-triazol-3-yl)methanone]
IC50 ([1]; Table 3-1, PC3 cells): 1 to 100 nM | IC50 ([2]; Table 3-1, PC3 cells): 1 to 100 nM

CC(=O)c1c([C@@H]2C[C@H]3CC[C@@H](C2)N3C(=O)c2cc(N)n[nH]2)nc2c(-c3ccc(-c4ccc(F)cc4F)nc3)cnn2c1N [Compound 1.1.166, 1-(7-amino-5-((1R,3s,5S)-8-(3-amino-1H-pyrazole-5-carbonyl)-8-azabicyclo[3.2.1]octan-3-yl)-3-(6-(2,4-difluorophenyl)pyridin-3-yl)pyrazolo[1,5-a]pyrimidin-6-yl)ethanone]
IC50 [1, 5]: 1 to 100 nM | IC50 [2, 5]: 1 to 100 nM

CCNC(=O)N1[C@@H]2CC[C@H]1C[C@H](c1nc3c(-c4ccc(-c5ccccc5)nc4)cnn3c(N)c1S(C)(=O)=O)C2 [Compound 3.8, (1R,3s,5S)-3-(7-amino-6-(methylsulfonyl)-3-(6-phenylpyridin-3-yl)pyrazolo[1,5-a]pyrimidin-5-yl)-N-ethyl-8-azabicyclo[3.2.1]octane-8-carboxamide]
IC50 [1, 4]: 100 to 1000 nM | IC50 [2, 4]: 100 to 1000 nM

1-((1R,3s,5S)-3-(6-acetyl-7-amino-3-(6-(cyclopropylamino)pyridin-3-yl)pyrazolo[1,5-a]pyrimidin-5-yl)-8-azabicyclo[3.2.1]octan-8-yl)-2-hydroxyethanone [Compound 8.50]
IC50 ([1]; PC3 cells): 100 to 1000 nM | IC50 ([2]; PC3 cells): 100 to 1000 nM

CS(=O)(=O)c1c([C@@H]2C[C@H]3CC[C@@H](C2)N3C(=O)c2nnc[nH]2)nc2c(-c3ccc(-c4ccc5c(c4)OCO5)nc3)cnn2c1N [Compound 3.52, ((1R,3s,5S)-3-(7-amino-3-(6-(benzo[d][1,3]dioxol-5-yl)pyridin-3-yl)-6-(methylsulfonyl)pyrazolo[1,5-a]pyrimidin-5-yl)-8-azabicyclo[3.2.1]octan-8-yl)(4H-1,2,4-triazol-3-yl)methanone]
IC50 [1, 4]: 1 to 100 nM | IC50 [2, 4]: 1 to 100 nM

CC(=O)c1c([C@@H]2C[C@H]3CC[C@@H](C2)N3C(=O)CO)nc2c(-c3cnn(-c4ccccn4)c3)cnn2c1N [Compound 1.1.162, 1-((1R,3s,5S)-3-(6-acetyl-7-amino-3-(1-(pyridin-2-yl)-1H-pyrazol-4-yl)pyrazolo[1,5-a]pyrimidin-5-yl)-8-azabicyclo[3.2.1]octan-8-yl)-2-hydroxyethanone]
IC50 [1, 5]: 100 to 1000 nM | IC50 [2, 5]: 100 to 1000 nM

COc1ccc(-c2ccc(-c3cnn4c(N)c(S(C)(=O)=O)c([C@@H]5C[C@H]6CC[C@@H](C5)N6C(=O)c5nnc(N)[nH]5)nc34)cn2)cc1F [Compound 3.100, ((1R,3s,5S)-3-(7-amino-3-(6-(3-fluoro-4-methoxyphenyl)pyridin-3-yl)-6-(methylsulfonyl)pyrazolo[1,5-a]pyrimidin-5-yl)-8-azabicyclo[3.2.1]octan-8-yl)(5-amino-4H-1,2,4-triazol-3-yl)methanone]
IC50 [1, 4]: 1 to 100 nM | IC50 [2, 4]: 1 to 100 nM

CC(=O)c1c([C@@H]2C[C@H]3CC[C@@H](C2)N3C(=O)c2nnc[nH]2)nc2c(-c3ccc(C(O)CO)nc3)cnn2c1N (stereo partly drawn) [Compound 7.52, 1-(5-((1R,3s,5S)-8-(4H-1,2,4-triazole-3-carbonyl)-8-azabicyclo[3.2.1]octan-3-yl)-7-amino-3-(6-(1,2-dihydroxyethyl)pyridin-3-yl)pyrazolo[1,5-a]pyrimidin-6-yl)ethanone]
IC50 [1, 6]: 1000 to 10000 nM | IC50 [2, 6]: 1000 to 10000 nM

CS(=O)(=O)c1c([C@@H]2C[C@H]3CC[C@@H](C2)N3C(=O)[C@H](O)CO)nc2c(-c3ccc(-c4ccccc4)nc3)cnn2c1N [Compound 3.7, (R)-1-((1R,3S,5S)-3-(7-amino-6-(methylsulfonyl)-3-(6-phenylpyridin-3-yl)pyrazolo[1,5-a]pyrimidin-5-yl)-8-azabicyclo[3.2.1]octan-8-yl)-2,3-dihydroxypropan-1-one]
IC50 [1, 4]: 1000 to 10000 nM | IC50 [2, 4]: 100 to 1000 nM

CS(=O)(=O)c1c([C@@H]2C[C@H]3CC[C@@H](C2)N3C(=O)c2nnc[nH]2)nc2c(-c3cnc(-c4ccccc4)nc3)cnn2c1N [Compound 3.136, ((1R,3s,5S)-3-(7-amino-6-(methylsulfonyl)-3-(2-phenylpyrimidin-5-yl)pyrazolo[1,5-a]pyrimidin-5-yl)-8-azabicyclo[3.2.1]octan-8-yl)(4H-1,2,4-triazol-3-yl)methanone]
IC50 [1, 4]: 1 to 100 nM | IC50 [2, 4]: 1 to 100 nM
